Laboratory results reported in patent publication US20260042764A1, “COMPOSITIONS AND METHODS FOR INHIBITION OF KRAS” (TheRas, Inc., priority 2022, published 2026).

Key:
GP2d cells (KRAS G12D) = test: Cell-based pERK HTRF assay in GP2d cell (Biological Example 2); conditions: GP2d (KRAS G12D) cells, pERK HTRF
In short: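 Treatment with test compounds lasted one hour in DMEM containing 10% FBS, with DMSO held at 0.25%. Dilution series: 9 points, half-log spacing, highest 1 μM or 100 nM. Lysates were incubated 4–24 h at room temperature with antibody mix, then HTRF was read at 320 nm excitation.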

[1] = molecular target: T1, Avi-KRAS G12D (1-169) GppNHp/RAF1 RBD-3xFLAG (52-151) (Homo sapiens, UniProt P01116, G12D); test: Raf1-KRAS G12D-GppNHP disruption HTRF assay (Biological Example 1); format: binding
T1 construct: Avi-KRAS G12D (1-169)
T1 sequence (P01116 1-169 isoform P01116-2 G12D): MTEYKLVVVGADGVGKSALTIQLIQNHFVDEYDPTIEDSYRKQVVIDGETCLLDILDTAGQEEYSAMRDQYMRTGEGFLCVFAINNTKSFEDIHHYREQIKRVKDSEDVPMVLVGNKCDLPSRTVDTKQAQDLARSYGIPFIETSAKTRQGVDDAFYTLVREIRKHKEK
In short: (§1)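 Compounds were tested for disruption of KRAS–RAF1 RBD binding by HTRF in 50 mM Tris pH 7.5, 100 mM NaCl, 5 mM MgCl2, 0.1% BSA, 0.01% Tween, 10% DMSO. Protein mix was incubated 1 h at room temperature with shaking, then detection reagents added for another 1 h. Activity expressed as percent of DMSO control.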

[2] = molecular target: T2, Avi-KRAS WT (1-169) GppNHp/RAF1 RBD-3xFLAG (52-151) (Homo sapiens, UniProt P01116); test: Raf1-KRAS WT-GppNHP disruption HTRF assay (Biological Example 1); format: binding
T2 construct: Avi-KRAS WT (1-169)
T2 sequence (P01116 1-169 isoform P01116-2): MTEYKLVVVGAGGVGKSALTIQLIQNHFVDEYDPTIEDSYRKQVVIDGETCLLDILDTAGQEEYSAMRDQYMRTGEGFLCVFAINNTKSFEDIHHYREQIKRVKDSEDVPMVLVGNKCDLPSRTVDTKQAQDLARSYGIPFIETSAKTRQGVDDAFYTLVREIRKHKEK
In short: as §1

SW620 cells (KRAS G12V) = test: Cell-based pERK HTRF assay in SW620 cell (Biological Example 4); conditions: pERK HTRF
In short: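 SW620 cells were treated for 4 h with compound in a 9-point half-log series from 1 μM top (0.25% DMSO), then lysed. Phospho-ERK was detected by HTRF with d2 and Eu cryptate antibodies after 4–24 h at room temperature, read at 615 nm emission.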

[3] = molecular target: T3, Avi-KRAS G12V (1-169) GppNHp/RAF1 RBD-3xFLAG (52-151) (Homo sapiens, UniProt P01116, G12V); test: Raf1-KRAS G12V-GppNHP disruption HTRF assay (Biological Example 1); format: binding
T3 construct: Avi-KRAS G12V (1-169)
T3 sequence (P01116 1-169 isoform P01116-2 G12V): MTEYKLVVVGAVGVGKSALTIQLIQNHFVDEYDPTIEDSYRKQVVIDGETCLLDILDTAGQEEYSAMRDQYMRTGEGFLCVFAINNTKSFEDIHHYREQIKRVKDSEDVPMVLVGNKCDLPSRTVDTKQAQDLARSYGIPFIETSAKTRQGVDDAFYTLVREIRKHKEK
In short: as §1

[4] = molecular target: T4, Avi-KRAS G12R (1-169) GppNHp/RAF1 RBD-3xFLAG (52-151) (Homo sapiens, UniProt P01116, G12R); test: Raf1-KRAS G12R-GppNHP disruption HTRF assay (Biological Example 1); format: binding
T4 construct: Avi-KRAS G12R (1-169)
T4 sequence (P01116 1-169 isoform P01116-2 G12R): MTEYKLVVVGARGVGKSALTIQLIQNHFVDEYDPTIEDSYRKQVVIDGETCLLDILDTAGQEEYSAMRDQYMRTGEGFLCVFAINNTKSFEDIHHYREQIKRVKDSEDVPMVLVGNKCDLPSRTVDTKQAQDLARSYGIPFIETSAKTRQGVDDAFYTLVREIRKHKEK
In short: as §1

[5] = KRAS G12D, GppNHp-loaded, class symbols
[6] = KRAS WT, GppNHp-loaded, class symbols
[7] = Homo sapiens, SW-620, SW620 (KRAS G12V) cells, class symbols
[8] = KRAS G12V, GppNHp-loaded, class symbols
[9] = KRAS G12R, GppNHp-loaded, class symbols
[10] = Homo sapiens, SW-620, SW620 (KRAS G12V) cells

For `CCN(c1nc(OC[C@@]23CCCN2C[C@H](F)C3)nc2c(F)c(-c3ccc(F)c4sc(N)c(C#N)c34)c(C(F)(F)F)cc12)[C@H]1CCN(C(=O)[C@@H](C)CF)C1` (atropisomer, axis not shown) [Compound 710], the IC50 (GP2d cells (KRAS G12D); GP2d, class symbols) was less than 100 nM, the IC50 [1, 5] was less than 100 nM and the IC50 [2, 6] was less than 100 nM. For the same compound, the IC50 (SW620 cells (KRAS G12V); [7]) was less than 100 nM, the IC50 [3, 8] was 100 to 1000 nM and the IC50 [4, 9] was less than 100 nM.

With `CCc1c(C(=O)N(C)C)nn2c1CN(c1nc(OCC34CCCN3CC(F)C4)nc3c(F)c(-c4ccc(F)c5sc(N)c(C#N)c45)c(C(F)(F)F)cc13)CC2` (stereo not drawn) [Compound 773] the IC50 (GP2d cells (KRAS G12D); GP2d, class symbols) was less than 100 nM, the IC50 [1, 5] was 100 to 1000 nM and the IC50 [2, 6] was 100 to 1000 nM. For the same compound, the IC50 (SW620 cells (KRAS G12V); [7]) was less than 100 nM, the IC50 [3, 8] was 100 to 1000 nM and the IC50 [4, 9] was 100 to 1000 nM.

`CCN(c1nc(OC[C@@]23CCCN2C[C@H](F)C3)nc2c(F)c(-c3ccc(F)c4sc(N)c(C#N)c34)c(C(F)(F)F)cc12)[C@@H]1CN(C(=O)C(C)C)C[C@@H]1F` [Compound 475] gave an IC50 (GP2d cells (KRAS G12D); GP2d) of less than 100 nM, an IC50 ([1]; KRAS G12D-GppNHp/RAF1 RBD HTRF) of 100 to 1000 nM and an IC50 ([2]; KRAS WT-GppNHp/RAF1 RBD HTRF) of 100 to 1000 nM. The IC50 (SW620 cells (KRAS G12V); [10]) was less than 100 nM, the IC50 ([3]; KRAS G12V-GppNHp/RAF1 RBD HTRF) was 100 to 1000 nM and the IC50 ([4]; KRAS G12R-GppNHp/RAF1 RBD HTRF) was 100 to 1000 nM.

With `CCN(c1nc(OC[C@@]23CCCN2C[C@H](F)C3)nc2c(F)c(-c3ccc(F)c4sc(N)c(C#N)c34)c(C(F)(F)F)cc12)[C@H]1CC(=O)N(C)C1` [Compound 482] the IC50 (GP2d cells (KRAS G12D); GP2d) was less than 100 nM, the IC50 ([1]; KRAS G12D-GppNHp/RAF1 RBD HTRF) was 100 to 1000 nM and the IC50 ([2]; KRAS WT-GppNHp/RAF1 RBD HTRF) was 100 to 1000 nM. The IC50 (SW620 cells (KRAS G12V); [10]) was less than 100 nM, the IC50 ([3]; KRAS G12V-GppNHp/RAF1 RBD HTRF) was 100 to 1000 nM and the IC50 ([4]; KRAS G12R-GppNHp/RAF1 RBD HTRF) was 100 to 1000 nM.

With `CC[C@@H]1[C@H](N(C)c2nc(OC[C@@]34CCCN3C[C@H](F)C4)nc3c(F)c(-c4ccc(F)c5sc(N)c(C#N)c45)c(C(F)(F)F)cc23)CCN1C(=O)C1CC1` [Compound 434] the IC50 (GP2d cells (KRAS G12D); GP2d) was 100 to 1000 nM, the IC50 ([1]; KRAS G12D-GppNHp/RAF1 RBD HTRF) was 1000 to 10000 nM and the IC50 ([2]; KRAS WT-GppNHp/RAF1 RBD HTRF) was 100 to 1000 nM. The IC50 (SW620 cells (KRAS G12V); [10]) was 100 to 1000 nM, the IC50 ([3]; KRAS G12V-GppNHp/RAF1 RBD HTRF) was 1000 to 10000 nM and the IC50 ([4]; KRAS G12R-GppNHp/RAF1 RBD HTRF) was 1000 to 10000 nM.

`[2H]C1([2H])CN2C[C@H](F)C[C@]2(COc2nc(N(C)[C@@H]3CCN(C(=O)C4CC4)[C@@H]3C)c3cc(C(F)(F)F)c(-c4ccc(F)c5sc(N)c(C#N)c45)c(F)c3n2)C1` [Compound 522] was tested, and the IC50 (GP2d cells (KRAS G12D); GP2d) was less than 100 nM, the IC50 ([1]; KRAS G12D-GppNHp/RAF1 RBD HTRF) was 100 to 1000 nM and the IC50 ([2]; KRAS WT-GppNHp/RAF1 RBD HTRF) was less than 100 nM. The IC50 (SW620 cells (KRAS G12V); [10]) was less than 100 nM, the IC50 ([3]; KRAS G12V-GppNHp/RAF1 RBD HTRF) was 100 to 1000 nM and the IC50 ([4]; KRAS G12R-GppNHp/RAF1 RBD HTRF) was less than 100 nM.

`[2H]C([2H])([2H])OC(=O)N1CC[C@H](N(CC)c2nc(OC[C@@]34CCCN3C[C@H](F)C4)nc3c(F)c(-c4ccc(F)c5sc(N)c(C#N)c45)c(C(F)(F)F)cc23)C1` (atropisomer, axis not shown) [Compound 659] was tested, and the IC50 (GP2d cells (KRAS G12D); GP2d, class symbols) was less than 100 nM, the IC50 [1, 5] was less than 100 nM and the IC50 [2, 6] was less than 100 nM. For the same compound, the IC50 (SW620 cells (KRAS G12V); [7]) was less than 100 nM, the IC50 [3, 8] was less than 100 nM and the IC50 [4, 9] was less than 100 nM.

Compound `CCN(c1nc(OC[C@@]23CCCN2C[C@H](F)C3)nc2c(F)c(-c3ccc(F)c4sc(N)c(C#N)c34)c(C(F)(F)F)cc12)[C@H]1C[C@H]2CCOC(=O)N2C1` (atropisomer, axis not shown) [Compound 664] has an IC50 (GP2d cells (KRAS G12D); GP2d, class symbols) of less than 100 nM, an IC50 [1, 5] of less than 100 nM and an IC50 [2, 6] of less than 100 nM. The IC50 (SW620 cells (KRAS G12V); [7]) was less than 100 nM, the IC50 [3, 8] was less than 100 nM and the IC50 [4, 9] was less than 100 nM.

Work on `CN(c1nc(OC[C@@]23CCCN2C[C@H](F)C3)nc2c(F)c(-c3ccc(F)c4sc(N)c(C#N)c34)c(C(F)(F)F)cc12)[C@H]1CCS(=O)(=O)C1` (single isomer, unassigned) [Compound 221] yielded an IC50 (GP2d cells (KRAS G12D)) of less than 100 nM, an IC50 ([1]; KRAS G12D, GppNHp-loaded, Table 11) of 100 to 1000 nM and an IC50 ([2]; KRAS WT, GppNHp-loaded, Table 11) of 100 to 1000 nM. For the same compound, the IC50 (SW620 cells (KRAS G12V); SW620 (KRAS G12V) cells) was less than 100 nM, the IC50 ([3]; KRAS G12V, GppNHp-loaded, Table 11) was 100 to 1000 nM and the IC50 ([4]; KRAS G12R, GppNHp-loaded, Table 11) was 100 to 1000 nM.

Work on `CCN(c1nc(OC[C@@]23CCCN2C[C@H](F)C3)nc2c(F)c(-c3ccc(F)c4sc(N)c(C#N)c34)c(C(F)(F)F)cc12)C1CCN(C(=O)N2C3COCC2C3)C1` (stereo partly drawn) [Compound 652] yielded an IC50 (GP2d cells (KRAS G12D); GP2d, class symbols) of less than 100 nM, an IC50 [1, 5] of less than 100 nM and an IC50 [2, 6] of less than 100 nM. The IC50 (SW620 cells (KRAS G12V); [7]) was less than 100 nM, the IC50 [3, 8] was less than 100 nM and the IC50 [4, 9] was less than 100 nM.

For `CCN(c1nc(OC[C@@]23CCCN2C[C@H](F)C3)nc2c(F)c(-c3ccc(F)c4sc(N)c(C#N)c34)c(C(F)(F)F)cc12)[C@H]1CCN(C(=O)N2CC3C(C2)C3(F)F)C1` (stereo partly drawn) [Compound 657], the IC50 (GP2d cells (KRAS G12D); GP2d, class symbols) was less than 100 nM, the IC50 [1, 5] was less than 100 nM and the IC50 [2, 6] was less than 100 nM. It also gave an IC50 (SW620 cells (KRAS G12V); [7]) of less than 100 nM, an IC50 [3, 8] of less than 100 nM and an IC50 [4, 9] of less than 100 nM.
